From patent US20240216387A1, “COMPOSITION FOR PREVENTING OR TREATING MUSCULAR DISEASE, COMPRISING OXICAM-BASED COMPOUND” (ANIMUSCURE INC., priority 2021, published 2024)

Experiments:
24-month-old mice = assay: Muscle mass, muscle type and motor performance in aging mice upon long-term administration; format: in vivo
human muscle stem cells = assay: Human muscle stem cell differentiation (MHC immunostaining, myotube diameter); format: cell-based; settings: muscle stem cells from subject, meloxicam 1 μM, 4 days
Method: In addition, human muscle stem […] human skeletal muscle cells (Standard Donors), Cat NO: SK-1111) isolated from the rectus abdominis […] were purchased from MyoSite and used. Human muscle stem […] human skeletal muscle cells (Standard Donors), Cat NO: SK-1111) isolated from the rectus abdominis […] were purchased from MyoSite and used. Human muscle stem cells were seeded in a cell culture medium and cultured for 24 hours. […] The degree of differentiation into muscle fibers was measured through MHC immunostaining, which is a muscle fiber marker. Differentiation was analyzed by muscle fiber diameter.

4-month-old normal mice = assay: Body weight, intake, grip strength, treadmill test and muscle mass in 4-month-old normal mice upon long-term administration; format: in vivo; settings: meloxicam for 2 months
Method: In the treadmill test, measurement was performed by using a treadmill device for mice manufactured by Columbus Instruments. Measurements started at a 10% slope and 8 m/min, which was increased 1 m/min every 2 minutes, and continued until the mouse became tired.

C2Cl2 cells = assay: Myoblast differentiation by meloxicam concentration (MHC immunofluorescence and Western blot); format: cell-based, mice
Method: The C2Cl2 cells were cultured in a general cell culture medium and a differentiation medium, respectively. DMEM supplemented with 10% fetal bovine serum was used as a normal cell culture medium (i.e., a growth medium (GM)), and DMEM containing 2% horse serum was used as a differentiation medium (DM). […] After differentiation, the cells were observed under a microscope, and the cells were disrupted and subjected to Western blot analysis using myogenin and MHC antibodies, which are differentiation markers. The C2Cl2 cells were washed with 1×PBS, fixed with 4% paraformaldehyde at room temperature, and then allowed to react at room temperature after adding a permeabilization buffer. The reaction was performed with PBST (blocking buffer) containing 5% goat serum and PBS containing 0.05% Tween 20 to inhibit non-specific antibody binding. After adding a primary antibody against myosin heavy chain (MHC), the resulting mixture was allowed to react at room temperature. A secondary antibody diluted 1:5000 in a blocking buffer was added and allowed to react at room temperature, and after applying a mounting solution (40% glycerol in DW) and fixing, images were taken under a fluorescence microscope to analyze the results.

relatively young mice = assay: Grip strength and motor performance in relatively young mice (FIG. 15); format: in vivo
Method: On day 21 after inducing CTX-injury, a grip strength test for measuring the muscle strength of the meloxicam-administered group and the control group and an experiment for confirming motor performance were conducted. The grip strength test was performed by using a mouse grip strength tester manufactured by BIOSEB.

In the case of `Cc1cnc(NC(=O)C2=C(O)c3ccccc3S(=O)(=O)N2C)s1` [meloxicam], the “effect of increasing motor performance” value (24-month-old mice; 7-month-old mice) is reported as “confirmed”, the “muscle mass in the hindlimb muscles and EDL muscle” value (24-month-old mice; 24-month-old mice, meloxicam for 4 months, FIG. 12) is reported as “increased” and the “motor performance increase (rotarod apparatus) compared to the control group” value (24-month-old mice; aged mice, FIG. 14) is reported as “more than 50%”. The myotube diameter (human muscle stem cells; FIG. 4) was “increased”, the MHC expression (human muscle stem cells; FIG. 5) was “increased” and the myotube diameter (human muscle stem cells; FIG. 5) was “increased”. The “body weight change compared with the non-administration group” value (4-month-old normal mice; FIG. 16A) was “no significant change”, the change in intake (4-month-old normal mice; FIG. 16B) was “no change” and the “muscle strength (grip strength test)” value (4-month-old normal mice; FIG. 17A) was “improved”. The “exercise duration (treadmill test)” value (4-month-old normal mice; compared to the non-administration group, FIG. 17A) was “improved”, the “MHC expression level (Western blot)” value (C2Cl2 cells; by meloxicam concentration (1-10,000 nM), FIG. 3) was “increased” and the “MHC observed in myoblasts (fluorescence microscope)” value (C2Cl2 cells; high concentration of meloxicam (1-10,000 nM tested), differentiation for 3 days, FIG. 2) was “clearly observed”. For the same compound, the motor performance increase (relatively young mice) was “up to 72.3%” and the “muscle strength increase (grip strength test) compared to the control group” value (relatively young mice; day 21 after inducing CTX-injury as printed) was “about 21.9%”.
